Legend:
total bacteria present = conditions: approximately 5 ppm for 5 seconds, drip dry 10 seconds, rinse in 0.1 ppm for 5 seconds; fruits, vegetables, fish and shrimp
[1] = test system: HIV type1, Strain HTLV = IIIB
[2] = test system: pathogenic bacterial populations, biofilms
[3] = test system: Enterococcus faecium ATCC 6569
[4] = test system: Herpes simplex type I ATCC VR-733, Strain F(1)
[5] = test system: Staphylococcus aureus (MRSA) ATCC 700698; conditions: 30 ppm
[6] = test system: Enterococcus facium (VRE) ATCC 700221; conditions: 30 ppm
[7] = test system: dermal lesions both contaminated and infected with gram negative and gram positive bacteria
[8] = test system: heterotrophic bacteria (HBC) in biofilm and planktonic phases
[9] = test system: Legionella in biofilm and planktonic samples
[10] = test system: Poliovirus type 2 ATCC VR-1002, Strain Lansing
[11] = test system: Listeria monocytogenes ATCC 19111; conditions: 30 ppm
[12] = test system: Trichophyton Mentagrophytes ATCC 9533; conditions: 30 ppm
[13] = test system: Influenza A ATCC VR-544, Hong Kong Strain
[14] = test system: listeria monocytogenes ATCC 11543
[15] = test system: Staphylococcus aureus ATCC 6538
[16] = test system: Salmonella cholerasuis ATCC 10708
[17] = test system: Pseudomonas aeruginosa ATCC 15422
[18] = test system: Proprionibacterium acnes ATCC 6921; conditions: 30 ppm
[19] = test system: Rhinovirus R37 ATCC VR-1147, Strain 151-1
[20] = equine, observed repeatedly during the study

How did the “effectiveness as hard surface disinfectant with direct food contact” value (“effectiveness” below) (E. coli ATCC 11229) turn out when silver dihydrogen citrate was run?
Its value is “effective”.

And the “total bacteria present eliminated” value (total bacteria present)?
The value was 99.99%.

What about the “KILL TIME” value [1] of the same substance?
The value was 30-second.

And the “effectiveness” value [1]?
The value was “effective”.

And the “mortality in shrimp raising tanks” value [2]?
The value was “decreasing”.

And the “pathogenic bacterial populations, biofilms” value ([2]; shrimp raising tanks)?
Its value is “significantly reducing”.

What about the “effectiveness” value [3] of the same substance?
The value was “effective”.

What about the “KILL TIME” value [4] of the same substance?
Its value is 1-minute.

And the “effectiveness” value [4]?
Its value is “effective”.

What about the “effectiveness” value (SARS) of the same substance?
The value was “will be effective”.

What about the “KILL TIME” value [5] of the same substance?
Its value is 2-minute.

And the “KILL TIME” value [6]?
The value was 2-minute.

And the “efficacy for irrigating deep wounds and abscesses” value ([7]; equine)?
Its value is “very efficacious”.

What about the granulation / fibrosis ([7]; equine) of the same substance?
Its granulation / fibrosis is “promote healthy granulation without excessive fibrosis”.

What about the healing time [7, 20] of the same substance?
The healing time was “Decreased healing time”.

And the scar formation [7, 20]?
The scar formation was “reduction in scar formation”.

What about the “performance on dermal lesions compared to available disinfectant products on the market” value ([7]; equine, wet dressings or spray) of the same substance?
Its value is “superior performance”.

And the “healing and draining of deep wounds closed with drains” value ([7]; flushed with the disinfectant)?
The value was “rapid healing time and reduced draining”.

And the “uterine flush for bacterial and/or fungal/yeast infection” value ([7]; preliminary results)?
Its value is “very promising”.

What about the “reduction of heterotrophic bacteria” value [8] of the same substance?
The value was “did not significantly reduce”.

And the “killing of Legionella (in words)” value [9]?
The value was “killed Legionella”.

What about the “KILL TIME” value [10] of the same substance?
Its value is 10-minute.

What about the “effectiveness” value [10] of the same substance?
The value was “effective”.

What about the “result of ASTM E645-97 test” value (L. pneumophila) of the same substance?
Its value is “passed”.

And the “KILL TIME” value [11]?
The value was 30-seconds.

And the “KILL TIME” value (E. coli 0157 ATCC 43888)?
The value was 2-minute.

What about the “effectiveness” value (E. coli 0157 ATCC 43888) of the same substance?
The value was “effective”.

What about the “exposure after which the fungus is killed” value [12] of the same substance?
Its value is 10 min.

What about the “KILL TIME” value [13] of the same substance?
Its value is 10-minute.

And the “effectiveness” value [13]?
Its value is “effective”.

And the “effectiveness” value [14]?
Its value is “effective”.

And the “KILL TIME” value [15]?
The value was 30-seconds.

And the “effectiveness” value [15]?
Its value is “effective”.

What about the “KILL TIME” value [16] of the same substance?
The value was 30-seconds.

And the “effectiveness” value [16]?
Its value is “effective”.

What about the “KILL TIME” value [17] of the same substance?
Its value is 30-seconds.

What about the “effectiveness” value [17] of the same substance?
The value was “effective”.

And the “KILL TIME” value [18]?
The value was 15-seconds.

What about the “KILL TIME” value [19] of the same substance?
Its value is 10-minute.

And the “effectiveness” value [19]?
Its value is “effective”.

— US7435438B1, “Disinfectant and method of use” (Pure BioScience, priority 2003, dated 2008)
